Laboratory results taken from publication PMC5218480 (PLoS ONE, 2017).

Tested on: MV-4-11 cells
Experiment: Gene expression microarray analysis (Affymetrix PrimeView) and GSEA
Type: cell-based, human
Design: RFU PODN (11730768_x_at) / Fold change /veh PODN (11730768_x_at) / RFU LINC00158 (11744669_a_at) / Fold change /veh LINC00158 (11744669_a_at) / RFU DUSP10 (11751237_a_at) / Fold change /veh DUSP10 (11751237_a_at) / RFU ID3 (11757404_x_at) / Fold change /veh ID3 (11757404_x_at) / RFU PLEKHG5 (11737974_s_at) / Fold change /veh PLEKHG5 (11737974_s_at) / RFU LRRC4B (11730491_at) / Fold change /veh LRRC4B (11730491_at) / RFU GIMAP4 (11747438_a_at) / Fold change /veh GIMAP4 (11747438_a_at) / RFU KRT8 (11758183_x_at) / Fold change /veh KRT8 (11758183_x_at) / RFU CNN1 (11734310_a_at) / Fold change /veh CNN1 (11734310_a_at) / RFU VPS37D (11726825_at) / Fold change /veh VPS37D (11726825_at) / RFU C10orf10 (11716522_x_at) / Fold change /veh C10orf10 (11716522_x_at) / RFU KIR2DL2 /// KIR2DL4 /// KIR2DL5A /// KIR2DL5B /// KIR2DS1 /// KIR2DS2 /// KIR2DS3 /// KIR2DS4 /// KIR3DL3 /// KIR3DL3 /// KIR3DS1 (11738374_at) / Fold change /veh KIR2DL2 /// KIR2DL4 /// KIR2DL5A /// KIR2DL5B /// KIR2DS1 /// KIR2DS2 /// KIR2DS3 /// KIR2DS4 /// KIR3DL3 /// KIR3DL3 /// KIR3DS1 (11738374_at) / RFU C1QL1 (11718748_at) / Fold change /veh C1QL1 (11718748_at) / RFU TMPRSS4 (11747572_a_at) / Fold change /veh TMPRSS4 (11747572_a_at) / RFU HAMP (11756126_x_at) / Fold change /veh HAMP (11756126_x_at) / RFU RNFT2 (11725882_a_at) / Fold change /veh RNFT2 (11725882_a_at) / RFU NR4A2 (11747474_a_at) / Fold change /veh NR4A2 (11747474_a_at) / RFU ABCC12 (11746883_a_at) / Fold change /veh ABCC12 (11746883_a_at) / RFU TMEM136 (11760407_x_at) / Fold change /veh TMEM136 (11760407_x_at) / RFU CLDN22 /// WWC2 (11732394_at) / Fold change /veh CLDN22 /// WWC2 (11732394_at) / RFU HLA-DPB1 (11760878_x_at) / Fold change /veh HLA-DPB1 (11760878_x_at) / RFU SPINT1 (11716480_a_at) / Fold change /veh SPINT1 (11716480_a_at) / RFU GAP43 (11754022_s_at) / Fold change /veh GAP43 (11754022_s_at) / RFU A4GNT (11735810_at) / Fold change /veh A4GNT (11735810_at) / RFU PRB3 (11715151_x_at) / Fold change /veh PRB3 (11715151_x_at) / RFU TUBB4B (11761932_at) / Fold change /veh TUBB4B (11761932_at) / RFU CAPN14 (11732068_a_at) / Fold change /veh CAPN14 (11732068_a_at) / RFU TMCC2 (11721928_a_at) / Fold change /veh TMCC2 (11721928_a_at) / RFU IRGQ (11745062_a_at) / Fold change /veh IRGQ (11745062_a_at) / RFU FAM174B (11720279_a_at) / Fold change /veh FAM174B (11720279_a_at) / RFU TMPRSS4 (11748680_a_at) / Fold change /veh TMPRSS4 (11748680_a_at) / RFU FAM212B (11763350_a_at) / Fold change /veh FAM212B (11763350_a_at) / RFU PLEKHG5 (11743358_a_at) / Fold change /veh PLEKHG5 (11743358_a_at) / RFU ZSCAN30 (11745921_a_at) / Fold change /veh ZSCAN30 (11745921_a_at) / RFU CMKLR1 (11741424_a_at) / Fold change /veh CMKLR1 (11741424_a_at) / RFU LOC101060620 /// MAPK8IP1 (11723275_at) / Fold change /veh LOC101060620 /// MAPK8IP1 (11723275_at) / RFU SPTSSB (11747773_x_at) / Fold change /veh SPTSSB (11747773_x_at) / RFU PRSS12 (11739890_at) / Fold change /veh PRSS12 (11739890_at) / RFU BIN1 (11741810_x_at) / Fold change /veh BIN1 (11741810_x_at) / RFU WNT11 (11732464_a_at) / Fold change /veh WNT11 (11732464_a_at) / RFU C10orf10 (11716521_a_at) / Fold change /veh C10orf10 (11716521_a_at) / RFU C5orf56 (11738089_at) / Fold change /veh C5orf56 (11738089_at) / RFU CYB561 (11721691_x_at) / Fold change /veh CYB561 (11721691_x_at) / RFU ANKRD19P (11752326_a_at) / Fold change /veh ANKRD19P (11752326_a_at) / RFU OR2T12 /// OR2T33 /// OR2T8 (11738714_s_at) / Fold change /veh OR2T12 /// OR2T33 /// OR2T8 (11738714_s_at) / RFU VCAN (11748164_a_at) / Fold change /veh VCAN (11748164_a_at) / RFU JSRP1 (11732532_at) / Fold change /veh JSRP1 (11732532_at) / RFU KRTAP10-11 (11738290_x_at) / Fold change /veh KRTAP10-11 (11738290_x_at) / RFU MYO3A (11730013_a_at) / Fold change /veh MYO3A (11730013_a_at) / RFU EBF3 (11725865_a_at) / Fold change /veh EBF3 (11725865_a_at) / RFU CAMK2N1 (11719241_x_at) / Fold change /veh CAMK2N1 (11719241_x_at) / RFU C5orf56 (11738088_a_at) / Fold change /veh C5orf56 (11738088_a_at) / RFU OLFML3 (11715873_a_at) / Fold change /veh OLFML3 (11715873_a_at) / RFU LOC100653217 /// NTM (11731650_a_at) / Fold change /veh LOC100653217 /// NTM (11731650_a_at) / RFU MAPK11 (11762145_a_at) / Fold change /veh MAPK11 (11762145_a_at) / RFU FIZ1 (11724087_x_at) / Fold change /veh FIZ1 (11724087_x_at) / RFU OASL (11726364_x_at) / Fold change /veh OASL (11726364_x_at) / RFU SOX15 (11748057_x_at) / Fold change /veh SOX15 (11748057_x_at) / RFU CD79A (11719716_a_at) / Fold change /veh CD79A (11719716_a_at) / RFU HIST1H1D (11736915_at) / Fold change /veh HIST1H1D (11736915_at) / RFU CASKIN2 (11723855_a_at) / Fold change /veh CASKIN2 (11723855_a_at) / RFU LOC730098 (11760151_x_at) / Fold change /veh LOC730098 (11760151_x_at) / RFU OR4N2 (11742367_at) / Fold change /veh OR4N2 (11742367_at) / RFU PRRT2 (11749266_a_at) / Fold change /veh PRRT2 (11749266_a_at) / RFU SNX32 (11753110_a_at) / Fold change /veh SNX32 (11753110_a_at) / RFU CDHR5 (11726645_a_at) / Fold change /veh CDHR5 (11726645_a_at) / RFU RCAN1 (11760418_a_at) / Fold change /veh RCAN1 (11760418_a_at) / RFU FAM167A (11723789_a_at) / Fold change /veh FAM167A (11723789_a_at) / RFU FAM26E (11764081_at) / Fold change /veh FAM26E (11764081_at) / RFU ISYNA1 (11749810_s_at) / Fold change /veh ISYNA1 (11749810_s_at) / RFU ACY1 (11761880_at) / Fold change /veh ACY1 (11761880_at) / RFU 11764098_at / Fold change /veh 11764098_at / RFU SAMD14 (11745864_x_at) / Fold change /veh SAMD14 (11745864_x_at) / RFU NPB (11741838_a_at) / Fold change /veh NPB (11741838_a_at) / RFU TMPRSS6 (11731388_a_at) / Fold change /veh TMPRSS6 (11731388_a_at) / RFU KRTAP10-2 (11738614_at) / Fold change /veh KRTAP10-2 (11738614_at) / RFU ARHGAP8 /// PRR5-ARHGAP8 (11727945_x_at) / Fold change /veh ARHGAP8 /// PRR5-ARHGAP8 (11727945_x_at) / RFU KRTAP5-7 /// NADSYN1 (11734609_at) / Fold change /veh KRTAP5-7 /// NADSYN1 (11734609_at) / RFU RASL12 (11751679_a_at) / Fold change /veh RASL12 (11751679_a_at) / RFU CDKN2B (11736163_a_at) / Fold change /veh CDKN2B (11736163_a_at) / RFU PRF1 (11729649_at) / Fold change /veh PRF1 (11729649_at) / RFU, ZNF638 /// ZNF638-IT1 / Fold change vs veh, ZNF638 /// ZNF638-IT1 / RFU, PANK3 / Fold change vs veh, PANK3 / RFU, SH3YL1 / Fold change vs veh, SH3YL1 / RFU, ZEB2 / Fold change vs veh, ZEB2 / RFU, NRIP1 / Fold change vs veh, NRIP1 / RFU, PTTG1IP / Fold change vs veh, PTTG1IP / RFU, CAPN2 / Fold change vs veh, CAPN2 / RFU, MED14 / Fold change vs veh, MED14 / RFU, SNORA58 / Fold change vs veh, SNORA58 / RFU, C1orf63 / Fold change vs veh, C1orf63 / RFU, LRRFIP1 / Fold change vs veh, LRRFIP1 / RFU, NDUFAF7 / Fold change vs veh, NDUFAF7 / RFU, SLC12A2 / Fold change vs veh, SLC12A2 / RFU, IBTK / Fold change vs veh, IBTK / RFU, ESF1 / Fold change vs veh, ESF1 / Fold change vs veh, TMEM50B / RFU, TAOK1 / Fold change vs veh, TAOK1 / RFU, ACBD3 / Fold change vs veh, ACBD3 / RFU, TMA16 / Fold change vs veh, TMA16 / RFU, RWDD3 / Fold change vs veh, RWDD3 / RFU, BCAT1 / Fold change vs veh, BCAT1 / RFU, EDEM3 / Fold change vs veh, EDEM3 / RFU, TMEM33 / Fold change vs veh, TMEM33 / RFU, WDR75 / Fold change vs veh, WDR75 / RFU, AHCTF1 / Fold change vs veh, AHCTF1 / RFU, TFRC / Fold change vs veh, TFRC / RFU, ZDHHC17 / Fold change vs veh, ZDHHC17 / RFU, NOM1 / Fold change vs veh, NOM1 / RFU, ARL8B / Fold change vs veh, ARL8B / RFU, ZBTB11 / Fold change vs veh, ZBTB11 / RFU, TAMM41 / Fold change vs veh, TAMM41 / RFU, KIAA1704 /// LOC100996395 / Fold change vs veh, KIAA1704 /// LOC100996395 / RFU, ING1 / Fold change vs veh, ING1 / RFU, TRMT61B / Fold change vs veh, TRMT61B / RFU, FUBP3 / Fold change vs veh, FUBP3 / RFU, TP53 / Fold change vs veh, TP53 / RFU, TNKS2 / Fold change vs veh, TNKS2 / RFU, ZFP14 / Fold change vs veh, ZFP14 / RFU, ACTR2 / Fold change vs veh, ACTR2 / RFU, PPP3R1 / Fold change vs veh, PPP3R1 / RFU, PIK3R1 / Fold change vs veh, PIK3R1 / RFU, HNRNPA1 / Fold change vs veh, HNRNPA1 / RFU, RNF170 / Fold change vs veh, RNF170 / RFU, ZNF28 / Fold change vs veh, ZNF28 / RFU, RNGTT / Fold change vs veh, RNGTT / RFU, OGT / Fold change vs veh, OGT / RFU, BRD1 / Fold change vs veh, BRD1 / RFU, MARS / Fold change vs veh, MARS / RFU, ZNF655 / Fold change vs veh, ZNF655 / RFU, FAHD1 / Fold change vs veh, FAHD1 / RFU, BDP1 / Fold change vs veh, BDP1 / RFU, LRRCC1 / Fold change vs veh, LRRCC1 / RFU, ARID1A / Fold change vs veh, ARID1A / RFU, ZNF146 / Fold change vs veh, ZNF146 / RFU, ZNF330 / Fold change vs veh, ZNF330 / RFU, GPN3 / Fold change vs veh, GPN3 / RFU, C9orf123 / Fold change vs veh, C9orf123 / RFU, N4BP2L2 / Fold change vs veh, N4BP2L2 / RFU, ARFIP1 / Fold change vs veh, ARFIP1 / RFU, FAM179B / Fold change vs veh, FAM179B / RFU, BCL10 / Fold change vs veh, BCL10 / RFU, UHRF1BP1L / Fold change vs veh, UHRF1BP1L / RFU, BET1 / Fold change vs veh, BET1 / RFU, CNOT2 / Fold change vs veh, CNOT2 / RFU, ZNF268 / Fold change vs veh, ZNF268 / Fold change vs veh, ZNF507 / RFU, DGCR2 / Fold change vs veh, DGCR2 / RFU, WDSUB1 / Fold change vs veh, WDSUB1 / Fold change vs veh, HSP90B1 /// MIR3652 / RFU, ADSS / Fold change vs veh, ADSS / RFU, GK / Fold change vs veh, GK / RFU, ZNF148 / Fold change vs veh, ZNF148 / RFU, TAF9 / Fold change vs veh, TAF9 / RFU, SLC1A5 / Fold change vs veh, SLC1A5 / RFU, SLMO2 / Fold change vs veh, SLMO2 / RFU, ABCC4 / Fold change vs veh, ABCC4 / RFU, LOC101060439 /// RAP1B / Fold change vs veh, LOC101060439 /// RAP1B / RFU, RFX7 / Fold change vs veh, RFX7 / RFU, GTPBP10 / Fold change vs veh, GTPBP10 / RFU, CNEP1R1 / Fold change vs veh, CNEP1R1 / RFU, BIVM-ERCC5 /// ERCC5 / Fold change vs veh, BIVM-ERCC5 /// ERCC5 / RFU, ILF3 / Fold change vs veh, ILF3 / RFU 11762660_at / Fold change /veh 11762660_at / RFU VCAN (11757783_s_at) / Fold change /veh VCAN (11757783_s_at) / RFU DDX43 (11728927_at) / Fold change /veh DDX43 (11728927_at) / RFU KRT8 (11758188_x_at) / Fold change /veh KRT8 (11758188_x_at) / RFU NKD1 (11759106_at) / Fold change /veh NKD1 (11759106_at) / RFU SRD5A1 (11742802_a_at) / Fold change /veh SRD5A1 (11742802_a_at) / RFU TPSAB1 /// TPSB2 (11721975_s_at) / Fold change /veh TPSAB1 /// TPSB2 (11721975_s_at) / RFU GSTM3 (11746129_a_at) / Fold change /veh GSTM3 (11746129_a_at) / RFU IL23R (11737362_x_at) / Fold change /veh IL23R (11737362_x_at) / RFU TMEM51 (11727254_a_at) / Fold change /veh TMEM51 (11727254_a_at) / RFU PIWIL2 (11732686_x_at) / Fold change /veh PIWIL2 (11732686_x_at) / RFU ORM1 (11744905_x_at) / Fold change /veh ORM1 (11744905_x_at) / RFU CCDC152 (11743942_at) / Fold change /veh CCDC152 (11743942_at) / RFU ECM1 (11717891_a_at) / Fold change /veh ECM1 (11717891_a_at) / RFU IL23R (11748794_a_at) / Fold change /veh IL23R (11748794_a_at) / RFU TNFAIP8L3 (11732012_x_at) / Fold change /veh TNFAIP8L3 (11732012_x_at) / RFU MBOAT4 (11741988_at) / Fold change /veh MBOAT4 (11741988_at) / RFU 11764193_at / Fold change /veh 11764193_at / RFU TMEM53 (11763286_at) / Fold change /veh TMEM53 (11763286_at) / RFU MAGEB2 (11727129_at) / Fold change /veh MAGEB2 (11727129_at) / RFU TMEM200A (11744735_a_at) / Fold change /veh TMEM200A (11744735_a_at) / RFU CCDC152 (11751479_a_at) / Fold change /veh CCDC152 (11751479_a_at) / RFU FAM211A (11726209_a_at) / Fold change /veh FAM211A (11726209_a_at) / RFU RGS16 (11746705_a_at) / Fold change /veh RGS16 (11746705_a_at) / RFU VCAN (11755009_s_at) / Fold change /veh VCAN (11755009_s_at) / RFU RHOB (11743442_s_at) / Fold change /veh RHOB (11743442_s_at) / RFU RGS16 (11720943_a_at) / Fold change /veh RGS16 (11720943_a_at) / RFU RGS16 (11720944_at) / Fold change /veh RGS16 (11720944_at) / RFU, VPS4B / Fold change vs veh, VPS4B / RFU, CREB1 / Fold change vs veh, CREB1 / RFU, DNAJC13 / Fold change vs veh, DNAJC13 / RFU, GNAQ / Fold change vs veh, GNAQ / RFU, CDK5R1 / Fold change vs veh, CDK5R1 / RFU, ZRANB3 / Fold change vs veh, ZRANB3 / RFU, CUL4A / Fold change vs veh, CUL4A / RFU, CCNY / Fold change vs veh, CCNY / RFU, UFL1 / Fold change vs veh, UFL1 / RFU, COG3 / Fold change vs veh, COG3 / RFU, DIAPH2 / Fold change vs veh, DIAPH2 / RFU, SKA2 / Fold change vs veh, SKA2 / RFU, AFF3 / Fold change vs veh, AFF3 / RFU, LMF1 / Fold change vs veh, LMF1 / RFU, IPO11 / Fold change vs veh, IPO11 / RFU, DFFB / Fold change vs veh, DFFB / RFU, FOXP1 / Fold change vs veh, FOXP1 / RFU, CARD8 / Fold change vs veh, CARD8 / RFU, STRN3 / Fold change vs veh, STRN3 / RFU, ADK / Fold change vs veh, ADK / RFU, RASSF2 / Fold change vs veh, RASSF2 / RFU, WIPF1 / Fold change vs veh, WIPF1 / RFU, LARP1B / Fold change vs veh, LARP1B / RFU, RASA1 / Fold change vs veh, RASA1 / RFU, RB1 / Fold change vs veh, RB1 / RFU, PPFIA1 / Fold change vs veh, PPFIA1 / RFU, MAT2A / Fold change vs veh, MAT2A / RFU, CCT5 / Fold change vs veh, CCT5 / RFU, WDR92 / Fold change vs veh, WDR92 / RFU, CUX1 / Fold change vs veh, CUX1 / RFU, TTC7A / Fold change vs veh, TTC7A / RFU, TMEM135 / Fold change vs veh, TMEM135 / RFU, DEPTOR / Fold change vs veh, DEPTOR / RFU, CPM / Fold change vs veh, CPM / RFU, DNAJB6 / Fold change vs veh, DNAJB6 / RFU, CACNA2D3 / Fold change vs veh, CACNA2D3 / RFU, DTX4 / Fold change vs veh, DTX4 / RFU, TFCP2 / Fold change vs veh, TFCP2 / RFU, GMCL1 /// GMCL1P1 / Fold change vs veh, GMCL1 /// GMCL1P1 / RFU, AEBP2 / Fold change vs veh, AEBP2 / RFU, SNHG1 /// SNORD22 /// SNORD25 /// SNORD26 /// SNORD27 /// SNORD28 /// SNORD29 /// SNORD31 / Fold change vs veh, SNHG1 /// SNORD22 /// SNORD25 /// SNORD26 /// SNORD27 /// SNORD28 /// SNORD29 /// SNORD31 / Fold change (Aza/veh), C12orf56 (ProbeSet 11735607_a_at) / Fold change (ACY-1035/veh), C12orf56 (ProbeSet 11735607_a_at) / Fold change (Aza/veh), FGFR1OP (ProbeSet 11751329_s_at) / Fold change (ACY-1035/veh), FGFR1OP (ProbeSet 11751329_s_at) / Fold change (Aza/veh), VPS36 (ProbeSet 11739960_a_at) / Fold change (ACY-1035/veh), VPS36 (ProbeSet 11739960_a_at) / RFU SYPL1 (11715823_x_at) / Fold change /veh SYPL1 (11715823_x_at) / RFU IGFBP7 (11715501_s_at) / Fold change /veh IGFBP7 (11715501_s_at) / RFU REEP3 (11722064_at) / Fold change /veh REEP3 (11722064_at) / RFU IGLL1 (11728026_x_at) / Fold change /veh IGLL1 (11728026_x_at): dose or concentration left out as unconfirmed
Conditions: MV-4-11 cells, 48 hours

In the case of `Nc1ncn([C@@H]2O[C@H](CO)[C@@H](O)[C@H]2O)c(=O)n1` [azacitidine], the “RFU IGFBP7 (11715501_s_at)” value is reported as 202.56 RFU.
